Data as given in US20230126893A1, “[(1,4,5-TRISUBSTITUTED-1H-PYRAZOL-3-YL)SULFANYL]ACETIC ACID DERIVATIVES, SALTS THEREOF, AND USE THEREOF AS ACTIVE HERBICIDAL INGREDIENTS” (BAYER AKTIENGESELLSCHAFT, priority 2020, published 2023).

Tests used:
Format in all cases: in vivo
Echinochloa crus-galli [1] = assay: Post-emergence herbicidal effect against ECHCG; settings: 1280 g/ha, visual score after about 3 weeks, 100% = plants have died, 0% = like control plants
Procedure, shortened: (§1)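 Visual score, % action vs untreated controls (100% = plants dead, 0% = like controls), read ~3 wk after spraying. Greenhouse plants in sandy loam, one-leaf stage, 2–3 wk post-sowing. WP/EC as aqueous spray, 600–800 l/ha, 0.2% wetting agent.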

Alopecurus myosuroides [2] = assay: Post-emergence herbicidal effect against ALOMY; settings: 1280 g/ha, visual score after about 3 weeks, 100% = plants have died, 0% = like control plants
Procedure, shortened: as §1

[3] = test system: Tripleurospermum inodorum; assay: Pre-emergence herbicidal effect against MATIN; settings: 1280 g/ha, visual score after 3 weeks, 100% = plants have died, 0% = like control plants
Procedure, shortened: (§2)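 Pre-emergence soil-surface spray, WP/EC formulations in water at 600 to 800 L/ha plus 0.2% wetting agent, sandy loam, greenhouse, visual % damage vs untreated at 3 weeks (100% = plants dead, 0% = like control).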

Abutylon threophrasti [4] = assay: Pre-emergence herbicidal effect against ABUTH; settings: 1280 g/ha, visual score after 3 weeks, 100% = plants have died, 0% = like control plants
Text: (§3) 1. Pre-emergence herbicidal effect and crop plant compatibility Seeds of monocotyledonous and dicotyledonous weed plants and crop plants are laid out in sandy loam soil in wood-fibre pots and covered with soil. The compounds of the invention, formulated in the form of wettable powders (WP) or as emulsion concentrates (EC), are then applied to the surface of the covering soil as aqueous suspension or emulsion at a water application rate equating to 600 to 800 L/ha with addition of 0.2% wetting agent. After the treatment, the pots are placed in a greenhouse and kept under good growth conditions for the trial plants. The damage to the test plants is scored visually after a test period of 3 weeks by comparison with untreated controls (herbicidal activity in percent (%): 100% activity=the plants have died, 0% activity=like control plants). [table]

Stellaria media [5] = assay: Post-emergence herbicidal effect against STEME; settings: 1280 g/ha, visual assessment about 3 weeks after treatment, 100% = plants have died, 0% = like control plants
Procedure, shortened: as §1

Bassia scoparia [6] = assay: Pre-emergence herbicidal effect against KCHSC; settings: 1280 g/ha, visual score after 3 weeks, 100% = plants have died, 0% = like control plants
Text: as §3

Veronica persica [7] = assay: Post-emergence herbicidal effect against VERPE; settings: 1280 g/ha, visual assessment about 3 weeks after treatment, 100% = plants have died, 0% = like control plants
Procedure, shortened: as §1

Digitaria sanguinalis [8] = assay: Pre-emergence herbicidal effect against DIGSA; settings: 1280 g/ha, visual score after 3 weeks, 100% = plants have died, 0% = like control plants
Procedure, shortened: as §2

Veronica persica [9] = assay: Pre-emergence herbicidal effect against VERPE; settings: 1280 g/ha, visual score after 3 weeks, 100% = plants have died, 0% = like control plants
Procedure, shortened: as §2

Lolium rigidum [10] = assay: Pre-emergence herbicidal effect against LOLRI; settings: 1280 g/ha, visual score after 3 weeks, 100% = plants have died, 0% = like control plants
Procedure, shortened: as §2

Lolium rigidum [11] = assay: Post-emergence herbicidal effect against LOLRI; settings: 1280 g/ha, visual score after about 3 weeks, 100% = plants have died, 0% = like control plants
Experimental: [table] 2. Post-emergence herbicidal effect and crop plant compatibility Seeds of monocotyledonous and dicotyledonous weed and crop plants are laid out in sandy loam soil in wood-fibre pots, covered with soil and cultivated in a greenhouse under good growth conditions. 2 to 3 weeks after sowing, the test plants are treated at the one-leaf stage. The compounds of the invention, formulated in the form of wettable powders (WP) or as emulsion concentrates (EC), are then sprayed onto the green parts of the plants as aqueous suspension or emulsion at a water application rate equating to 600 to 800 l/ha with addition of 0.2% wetting agent. After the test plants have been left to stand in the greenhouse under optimal growth conditions for about 3 weeks, the action of the preparations is assessed visually in comparison to untreated controls (herbicidal action in percent (%): 100% activity=the plants have died, 0% activity=like control plants).

Bassia scoparia [12] = assay: Post-emergence herbicidal effect against KCHSC; settings: 1280 g/ha, visual assessment about 3 weeks after treatment, 100% = plants have died, 0% = like control plants
Procedure, shortened: as §1

Setaria viridis [13] = assay: Pre-emergence herbicidal effect against SETVI; settings: 1280 g/ha, visual score after 3 weeks, 100% = plants have died, 0% = like control plants
Procedure, shortened: as §2

Stellaria media [14] = assay: Pre-emergence herbicidal effect against STEME; settings: 1280 g/ha, visual score after 3 weeks, 100% = plants have died, 0% = like control plants
Procedure, shortened: as §2

Alopecurus myosuroides [15] = assay: Pre-emergence herbicidal effect against ALOMY; settings: 1280 g/ha, visual score after 3 weeks, 100% = plants have died, 0% = like control plants
Procedure, shortened: as §2

[16] = test system: Tripleurospermum inodorum; assay: Post-emergence herbicidal effect against MATIN; settings: 1280 g/ha, visual assessment about 3 weeks after treatment, 100% = plants have died, 0% = like control plants
Procedure, shortened: as §1

Poa annua [17] = assay: Post-emergence herbicidal effect against POAAN; settings: 1280 g/ha, visual assessment about 3 weeks after treatment, 100% = plants have died, 0% = like control plants
Procedure, shortened: as §1

Digitaria sanguinalis [18] = assay: Post-emergence herbicidal effect against DIGSA; settings: 1280 g/ha, visual score after about 3 weeks, 100% = plants have died, 0% = like control plants
Procedure, shortened: as §1

Echinochloa crus-galli [19] = assay: Pre-emergence herbicidal effect against ECHCG; settings: 1280 g/ha, visual score after 3 weeks, 100% = plants have died, 0% = like control plants
Procedure, shortened: as §2

Setaria viridis [20] = assay: Post-emergence herbicidal effect against SETVI; settings: 1280 g/ha, visual assessment about 3 weeks after treatment, 100% = plants have died, 0% = like control plants
Procedure, shortened: as §1

Abutylon threophrasti [21] = assay: Post-emergence herbicidal effect against ABUTH; settings: 1280 g/ha, visual assessment about 3 weeks after treatment, 100% = plants have died, 0% = like control plants
Procedure, shortened: as §1

Poa annua [22] = assay: Pre-emergence herbicidal effect against POAAN; settings: 1280 g/ha, visual score after 3 weeks, 100% = plants have died, 0% = like control plants
Procedure, shortened: as §2

Amaranthus retroflexus [23] = assay: Post-emergence herbicidal effect against AMARE; settings: 1280 g/ha, visual assessment about 3 weeks after treatment, 100% = plants have died, 0% = like control plants
Procedure, shortened: as §1

Amaranthus retroflexus [24] = assay: Pre-emergence herbicidal effect against AMARE; settings: 1280 g/ha, visual score after 3 weeks, 100% = plants have died, 0% = like control plants
Procedure, shortened: as §2

Row | Structure (SMILES) | Post-emergence action against ECHCG (Echinochloa crus-galli [1]) | Post-emergence action against ALOMY (Alopecurus myosuroides [2]) | Pre-emergence action against MATIN [3] | Pre-emergence action against ABUTH (Abutylon threophrasti [4]) | Post-emergence action against STEME (Stellaria media [5]) | Pre-emergence action against KCHSC (Bassia scoparia [6]) | Post-emergence action against VERPE (Veronica persica [7]) | Pre-emergence action against DIGSA (Digitaria sanguinalis [8]) | Pre-emergence action against VERPE (Veronica persica [9]) | Pre-emergence action against LOLRI (Lolium rigidum [10]) | Post-emergence action against KCHSC (Bassia scoparia [12]) | Pre-emergence action against SETVI (Setaria viridis [13]) | Pre-emergence action against STEME (Stellaria media [14]) | Pre-emergence action against ALOMY (Alopecurus myosuroides [15]) | Post-emergence action against MATIN [16] | Post-emergence action against POAAN (Poa annua [17]) | Pre-emergence action against ECHCG (Echinochloa crus-galli [19]) | Post-emergence action against SETVI (Setaria viridis [20]) | Post-emergence action against ABUTH (Abutylon threophrasti [21]) | Pre-emergence action against POAAN (Poa annua [22]) | further results
1 | O=C(O)CSc1nn(-c2ccccc2F)c(-c2ccc(F)c(F)c2)c1Cl [Example I-014] | 90% | 100% | 100% | 100% | 100% | 90% | 90% | 100% | 100% | 100% | 100% | 100% | 100% | 100% | 100% | 100% | 90% | 90% | 90% | 100% | Post-emergence action against LOLRI (Lolium rigidum [11]): 90%; Post-emergence action against DIGSA (Digitaria sanguinalis [18]): 100%
2 | O=C(O)CSc1nn(-c2ccccc2F)c(-c2cncc(F)c2)c1Br [II-005] | 100% | 100% | 100% | 90% | 100% | 90% | 100% | 100% | 100% | 100% | 90% | 100% | 100% | 100% | 100% | 100% | 100% | 100% | 90% | 100% | Post-emergence action against LOLRI (Lolium rigidum [11]): 90%; Post-emergence action against AMARE (Amaranthus retroflexus [23]): 90%; Pre-emergence action against AMARE (Amaranthus retroflexus [24]): 100%; Post-emergence action against DIGSA (Digitaria sanguinalis [18]): 100%
3 | CCOC(=O)CSc1nn(-c2ccccc2F)c(-c2cncc(Cl)c2)c1Br [II-007] | 100% | 100% | 100% | 90% | 100% | 100% | 100% | 100% | 100% | 100% | – | 100% | 100% | 100% | 100% | 100% | 100% | 90% | 90% | 100% | Post-emergence action against AMARE (Amaranthus retroflexus [23]): 100%; Pre-emergence action against AMARE (Amaranthus retroflexus [24]): 100%; Post-emergence action against DIGSA (Digitaria sanguinalis [18]): 100%
4 | CCOC(=O)C[S+]([O-])c1nn(-c2ccccc2F)c(-c2cncc(F)c2)c1Br (stereo not shown) [II-011] | 100% | 100% | 100% | 90% | 100% | 100% | 90% | 100% | 100% | 100% | 100% | 100% | 100% | 100% | 90% | 100% | 100% | 100% | 90% | 100% | Post-emergence action against AMARE (Amaranthus retroflexus [23]): 90%; Pre-emergence action against AMARE (Amaranthus retroflexus [24]): 100%; Post-emergence action against DIGSA (Digitaria sanguinalis [18]): 100%
5 | COC(=O)CCNC(=O)CSc1nn(-c2ccccc2F)c(-c2cncc(F)c2)c1Br [VII-010] | 90% | 90% | 100% | – | – | 90% | 90% | – | 100% | 100% | 90% | 100% | 90% | 90% | 90% | 100% | 90% | 90% | 90% | 100% | Post-emergence action against LOLRI (Lolium rigidum [11]): 90%
